Measured values from patent US10149911B2, “Pharmaceutical composition containing hydroxamic acid derivative or salt thereof” (TOYAMA CHEMICAL CO., LTD., priority 2014, dated 2018).

How the values were obtained:
[1] = Solubility test in 10% CD or CD derivative solution; format: physicochemical; conditions: thermodynamic from solid, room temperature
Experimental: To 5 mL of a 10% CD or CD derivative solution, about 100 mg of Compound A monohydrate was added, and stirred at room temperature for 24 hours. To the solutions in which αCD, HPαCD, DMβCD and methyl-β-cyclodextrin were used, about 100 mg of Compound A monohydrate was added after 6 hours. After centrifugation (3000 rpm, 10 minutes), the supernatant was filtered with a filter, and the solubility was measured by the HPLC method.

[2] = system: multidrug-resistant Pseudomonas aeruginosa clinical isolate (S-2838 strain); assay: Defense against mouse systemic infection using multidrug-resistant Pseudomonas aeruginosa; format: in vivo; conditions: male ICR mice, S-2838 strain i.p., 25 mg/kg
Experimental: The mice used were male ICR SPF mice (4 weeks old: 5 individuals per group).
To prepare a bacterial inoculum solution, a multidrug-resistant Pseudomonas aeruginosa clinical isolate (S-2838 strain) cultured overnight at 37° C. on a Mueller-Hinton agar plate was cultured for 5 hours in a cation-adjusted Mueller-Hinton medium and then diluted 10-fold with a 10% mucin/phosphate buffer solution to prepare the inoculum solution.
Infection was induced by the intraperitoneal inoculation of 0.5 mL of the inoculum solution (approximately 10^6 CFU/mouse) to each mouse. […] Three days after the infection, the number of survivors was recorded.

[3] = system: Pseudomonas aeruginosa clinical isolate (S-2838 strain); assay: Mouse model with urinary tract infection by multidrug-resistant Pseudomonas aeruginosa; format: in vivo; conditions: female ICR mice, S-2838 strain via urethra, 12.5 mg/kg
Experimental: The mice used were female ICR SPF mice (5 weeks old: 5 individuals per group).
(§1) To prepare a bacterial inoculum solution, a Pseudomonas aeruginosa clinical isolate (S-2838 strain) was suspended in sterile saline.
Infection was induced by the inoculation of 0.2 mL of the inoculum solution (approximately 10^3 CFU/mouse) through the urethra of each mouse. […] The numbers of bacterial colonies of the next day of the infection in the kidneys were recorded, and an average thereof was calculated.

[4] = system: Pseudomonas aeruginosa clinical isolate (S-2838 strain); assay: Mouse model with pulmonary infection by multidrug-resistant Pseudomonas aeruginosa; format: in vivo; conditions: cyclophosphamide-treated male ICR mice, S-2838 strain intranasal, 25 mg/kg
Experimental: The mice used were male ICR SPF mice (4.5 weeks old at the time of infection: 5 individuals per group). In order to achieve a transient compromised state, cyclophosphamide was intraperitoneally administered at a dose of 200 mg/kg to each mouse 4 days before injection.
as §1
Infection was induced by the inoculation of 0.05 mL of the inoculum solution (approximately 10^5 CFU/mouse) to each mouse intranasally. […] The numbers of bacterial colonies of the next day of the infection in the lungs were recorded, and an average thereof was calculated.

Compound: CNC(=O)[C@@](C)(C(=O)NO)N(C)C(=O)c1ccc(C#Cc2ccc([C@H](O)CO)cc2)cc1 [Compound A monohydrate, (2S)-2-((4-((4-((1S)-1,2-dihydroxyethyl)phenyl)ethynyl)benzoyl)(methyl)amino)-N-hydroxy-N′,2-dimethylmalonamide]
- solubility at 24 h ([1]; 10% DMβCD solution, aqueous with cosolvent or surfactant or cyclodextrin, 10% DM β CD solution): 16.6 mg/mL
- solubility at 24 h ([1]; 10% HPαCD solution, aqueous with cosolvent or surfactant or cyclodextrin, 10% HP α CD solution): 25.7 mg/mL
- solubility at 24 h ([1]; 10% HPβCD solution, aqueous with cosolvent or surfactant or cyclodextrin, 10% HP β CD solution): 11.6 mg/mL
- solubility at 24 h ([1]; 10% HPγCD solution, aqueous with cosolvent or surfactant or cyclodextrin, 10% HP γ CD solution): 8.8 mg/mL
- solubility at 24 h ([1]; 10% SBEβCD solution, aqueous with cosolvent or surfactant or cyclodextrin, 10% SBE β CD solution): 8.9 mg/mL
- solubility at 24 h ([1]; 10% αCD solution, aqueous with cosolvent or surfactant or cyclodextrin, 10% α CD solution): 30.2 mg/mL
- solubility at 24 h ([1]; 10% βCD solution, aqueous with cosolvent or surfactant or cyclodextrin, 10% β CD solution): 5.9 mg/mL
- solubility at 24 h ([1]; 10% γCD solution, aqueous with cosolvent or surfactant or cyclodextrin, 10% γ CD solution): 14.4 mg/mL
- solubility at 24 h ([1]; aqueous with cosolvent or surfactant or cyclodextrin, 10% 2,3,6-Tri-O-methyl-β-cyclodextrin solution): 4.7 mg/mL
- solubility at 24 h ([1]; aqueous with cosolvent or surfactant or cyclodextrin, 10% 6-O-α-maltosyl-β-cyclodextrin solution): 10 mg/mL
- solubility at 24 h ([1]; aqueous with cosolvent or surfactant or cyclodextrin, 10% Hydroxyethyl-β-cyclodextrin solution): 11.9 mg/mL
- solubility at 24 h ([1]; aqueous with cosolvent or surfactant or cyclodextrin, 10% Methyl-β-cyclodextrin solution): 17.5 mg/mL
- solubility at 24 h ([1]; water, None (no CD or CD derivative)): 0.2 mg/mL

Compound: CNC(=O)[C@@](C)(C(=O)NO)N(C)C(=O)c1ccc(C#Cc2ccc([C@H](O)CO)cc2)cc1 [Compound A, (2S)-2-((4-((4-((1S)-1,2-dihydroxyethyl)phenyl)ethynyl)benzoyl)(methyl)amino)-N-hydroxy-N′,2-dimethylmalonamide]
- mice surviving 3 days after the bacterial inoculation [2]: ≥ 60%
- decrease in the intrarenal viable cell count compared to the control group [3]: ≥ 2 log CFU/kidney
- decrease in the intrapulmonary viable cell count compared to the control group [4]: ≥ 2 log CFU/lung
